Experimental data: PubChem BioAssay (NCI)
Several values for one entry are separate records, joined by “and”; a condition that tells them apart may be missing. Identical values can stand only once.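 Exposure lasted 48 hours, with cells grown in 96-well plates and compounds tested at five concentrations. GI50: concentration for 50% inhibition of growth. TGI denotes the concentration required for complete inhibition of growth.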

Assays:
Assay in all cases: DTP human tumour cell line panel, 48 h
OVCAR-4 ovarian = tested on: OVCAR-4 ovarian
HL-60(TB) leukemia = tested on: HL-60(TB) leukemia
SK-MEL-28 melanoma = tested on: SK-MEL-28 melanoma
SNB-19 CNS = tested on: SNB-19 CNS
DU-145 prostate = tested on: DU-145 prostate
BT-549 breast = tested on: BT-549 breast
NCI-H460 lung = tested on: NCI-H460 lung
786-0 renal = tested on: 786-0 renal
MOLT-4 leukemia = tested on: MOLT-4 leukemia
COLO 205 colon = tested on: COLO 205 colon

SMILES	GI50 (OVCAR-4 ovarian)	TGI (OVCAR-4 ovarian)	GI50 (HL-60(TB) leukemia)	TGI (HL-60(TB) leukemia)	GI50 (SK-MEL-28 melanoma)	TGI (SK-MEL-28 melanoma)	GI50 (SNB-19 CNS)	TGI (SNB-19 CNS)	GI50 (DU-145 prostate)	TGI (DU-145 prostate)	GI50 (BT-549 breast)	TGI (BT-549 breast)	GI50 (NCI-H460 lung) [µM]	TGI (NCI-H460 lung)	GI50 (786-0 renal)	TGI (786-0 renal)	GI50 (MOLT-4 leukemia)	TGI (MOLT-4 leukemia)	GI50 (COLO 205 colon)	TGI (COLO 205 colon)
CC(C)(C)OC(=O)CN1CCc2c(sc3ncnc(N/N=C/c4cccc5ccccc45)c23)C1	2.58 µM	14.1 µM	2.55 µM	19.2 µM	4.41 µM	15.7 µM	4.73 µM	32.1 µM	4.73 µM	31.9 µM	6.03 µM	> 33.3 µM	1.62	6.22 µM	4.11 µM	16.4 µM	1.26 µM	9.39 µM	1.07 µM	3.93 µM
CN1CCN(CCNc2ccc(CO)c3sc4ccccc4c(=O)c23)CC1		13.3 µM		15.7 µM		9.02 µM		36.1 µM	3.43 µM	11.9 µM	4.83 µM	16.1 µM		13.1 µM		17.5 µM		12.3 µM		16.5 µM
O=C(O)c1cscc1Cc1cccs1		> 100 µM		> 100 µM		> 100 µM		> 100 µM		> 100 µM		> 100 µM		> 100 µM		> 100 µM		> 100 µM		> 100 µM
CN1CCN(c2ccc(NC3=C(Cl)C(=O)c4ncccc4C3=O)cc2C#N)CC1	1.09 µM	2.36 µM	0.316 µM	1.24 µM	1.86 µM	3.26 µM	11 µM	23 µM	2.99 µM	15.5 µM	2.25 µM	5.95 µM	13	30.9 µM	1.72 µM	3.23 µM	1.04 µM	5.31 µM	2.06 µM	4.51 µM
C[C@]12C3CC[C@@]4(CO)C[C@]3(CCC1[C@](C)(C(=O)O)CC[C@@H]2O)CC4=O (stereo not given in full)	> 100 µM	> 100 µM	> 100 µM	> 100 µM	> 100 µM	> 100 µM	> 100 µM	> 100 µM	> 100 µM	> 100 µM	> 100 µM	> 100 µM	> 100	> 100 µM	> 100 µM	> 100 µM	> 100 µM	> 100 µM	> 100 µM	> 100 µM
NC(=S)N/N=C\c1nccc2c(N)cccc12	0.414 µM	> 100 µM	0.181 µM	11.7 µM	1.16 µM	> 100 µM	0.557 µM	> 100 µM	0.278 µM	2.38 µM	0.836 µM	> 100 µM	0.303	2.04 µM	0.163 µM	0.737 µM	0.235 µM	> 100 µM	1.09 µM	> 100 µM
COc1ccc2c(c1)cn1c3ccc(O)cc3[nH]c(=O)c21	2.41 µM	13.4 µM	0.216 µM	1.2 µM	0.147 µM	6.33 µM	0.203 µM	19.5 µM	0.234 µM	8.74 µM	2.73 µM	19.2 µM	0.138	1.62 µM	0.334 µM	5.49 µM	0.316 µM	6.95 µM	0.409 µM	2.83 µM
O=C(Nc1ccc(Cl)cc1)c1cc(S(=O)(=O)Nc2nnc(-c3ccccc3)c(-c3ccccc3)n2)c(SCc2ccccc2)cc1Cl	49.8 µM	> 85.4 µM	23.3 µM	> 68.3 µM	28.9 µM	> 73.6 µM	37.9 µM	> 67 µM	37.2 µM	> 62.1 µM	34.9 µM	> 70.5 µM	25.2	81.8 µM	23.6 µM	> 57.8 µM	17.4 µM	> 60.4 µM	23.8 µM	> 60.3 µM
Oc1c(I)cc(-c2nc3ccccc3s2)cc1CN(Cc1ccccn1)Cc1ccccn1	0.231 µM	5.58 µM	0.323 µM	> 100 µM	0.411 µM	43 µM	0.387 µM	> 100 µM	0.616 µM	> 100 µM	0.394 µM	29.8 µM	0.327	5.94 µM	0.347 µM	2.62 µM	0.327 µM	> 100 µM	0.352 µM	20.7 µM
COC(=O)OCc1ccc2c(c1)C(=O)c1c-2n(CCCBr)c(=O)c2cc([N+](=O)[O-])ccc12	> 100 µM	> 100 µM	70.2 µM	> 100 µM	> 100 µM	> 100 µM	79 µM	> 100 µM	> 100 µM	> 100 µM	44.9 µM	> 100 µM	> 100	> 100 µM	31.7 µM	92 µM	31.6 µM	> 100 µM	> 100 µM	> 100 µM
COC(=O)C1(C2CC/C(C)=C/CC/C(C)=C/CC[C@@]3(C)O[C@@H]3C2)CC1 (stereo not given in full)	> 100 µM	> 100 µM	25.2 µM	> 83.5 µM	> 100 µM	> 100 µM	> 100 µM	> 100 µM	33.6 µM	> 100 µM	> 100 µM	> 100 µM	35.5	> 100 µM	35.5 µM	> 70 µM	29.3 µM	> 100 µM	> 56.5 µM	> 100 µM
Cc1cccc2c1O/C(=C\c1ccc([N+](=O)[O-])o1)C2=O	2.06 µM	8.06 µM	1.58 µM	4.35 µM	1.53 µM	3.05 µM	2.7 µM	> 33 µM	0.659 µM	2.12 µM	1.28 µM	2.63 µM	0.817	2.5 µM	1.8 µM	4.27 µM	1.52 µM	5.7 µM	0.66 µM	2.14 µM
NC(Cc1ccnnc1)C(=O)O (stereo not given)		> 100 µM		> 100 µM		> 100 µM		> 100 µM		> 100 µM		> 100 µM		> 100 µM		> 100 µM		> 100 µM		> 100 µM
O=S(=O)(O)/C(=C\c1ccccc1)c1ccccc1 (tested in a mixture with another compound)		> 100 µM		> 100 µM		> 100 µM		> 100 µM		> 100 µM		> 100 µM		> 100 µM		> 100 µM		> 100 µM		> 100 µM
COc1ccc(/C=C(/C)[N+](=O)[O-])cc1		10.6 µM		> 21.8 µM		8.14 µM		17.9 µM		6.26 µM		6.91 µM		5.22 µM		2.51 µM		5.34 µM		4.3 µM
O=C(Nc1cccc(O)c1)c1cccc(NC2=C(Cl)C(=O)N(Cc3ccccc3)C2=O)c1	19.2 µM	47.9 µM	4.88 µM	27.9 µM	16.9 µM	36.3 µM	18.8 µM	41.4 µM	3.61 µM	16 µM	0.396 µM	2.05 µM	36.8	> 100 µM	15.2 µM	30.2 µM	1.04 µM	> 100 µM	27.4 µM	67 µM
O=C1C(=O)c2ccccc2C(O)=C1CC=C(Cl)Cl	18.9 µM and 26.9 µM	96.9 µM and 135 µM and > 100 µM	3.24 µM and 13.3 µM	37.8 µM and > 76.6 µM and 56.6 µM	9.5 µM and 16.4 µM	60.4 µM and 161 µM and > 100 µM	7.46 µM and 9.74 µM	> 90.5 µM and 204 µM and > 100 µM	12 µM and 10.9 µM	204 µM and > 100 µM	16.3 µM and 27.1 µM	94.6 µM and 139 µM and > 100 µM	1.66	49.8 µM and 79.1 µM and 25.5 µM	4.63 µM and 13.4 µM	> 68.9 µM and 250 µM and > 100 µM	0.828 µM and 4.68 µM	27.1 µM and 103 µM and > 100 µM	11.4 µM and 11.2 µM	28.8 µM and > 85.5 µM and > 100 µM
Nc1ccc2ccc(NS(=O)(=O)N3CCCCC3)cc2c1	1.82 µM	> 100 µM	0.327 µM	> 100 µM	0.664 µM	> 100 µM	0.797 µM	> 100 µM	1.45 µM	22.2 µM	0.69 µM	> 84.3 µM	0.409		5.32 µM	> 100 µM	0.524 µM	> 100 µM	0.369 µM	1.65 µM
C(=C\c1nccc2c1[nH]c1ccccc12)/c1ccccc1	3.18 µM	> 100 µM	2.07 µM	5.55 µM	4.78 µM	28.4 µM	4.4 µM	48.4 µM	3.5 µM	12.3 µM	2.22 µM	10.2 µM	3.28	13.7 µM	3.49 µM	10.7 µM	2.84 µM	22.3 µM	1.56 µM	3.62 µM
O=C1c2ccn(CCCCN3CCCCC3)c2C(=O)c2c1c(O)c1ccccc1c2O	9.48 µM	> 61.1 µM	24.5 µM	> 100 µM	3.73 µM	44.2 µM	19.1 µM	> 90.5 µM	14.1 µM	30.3 µM	17.7 µM	38.3 µM	3.88	16.3 µM	5.28 µM		3.49 µM	> 100 µM	5.8 µM	> 52.2 µM
COc1cc(NCc2ccccc2O)c2ncccc2c1	13.7 µM	> 100 µM	18.5 µM	57 µM	21.3 µM	80.2 µM	31.8 µM	> 100 µM	41.7 µM	> 100 µM	16.6 µM	55 µM	15.8	> 100 µM	29.8 µM	> 100 µM	18.9 µM	> 100 µM	19.7 µM	77.2 µM
CC(C)(C)[Si](C)(C)OCC1C=CC(n2cnc3c(N)ncnc32)O1 (stereo not given)		> 100 µM		40.3 µM		> 100 µM		> 100 µM		> 100 µM		> 54.7 µM		> 100 µM		> 100 µM		44.4 µM		> 100 µM
C1=C(c2ccccc2)SC=C(c2ccccc2)S1		> 100 µM		> 100 µM		> 100 µM		> 100 µM		> 100 µM		84.8 µM		> 100 µM		> 100 µM		> 100 µM		> 100 µM
COc1ccc(Cl)cc1NC(=O)c1cccc([N+](=O)[O-])c1O		> 88.3 µM		> 69.6 µM		> 91.4 µM		> 100 µM		> 100 µM		27.4 µM		> 81.2 µM		58.7 µM		> 100 µM		32 µM
CC1SC(c2c(Cl)cccc2Cl)N(NC(=O)C(O)c2ccccc2)C1=O (stereo not given)	> 100 µM	> 100 µM	94 µM	> 100 µM	> 100 µM	> 100 µM	> 100 µM	> 100 µM	> 100 µM	> 100 µM	> 100 µM	> 100 µM	> 100	> 100 µM	> 100 µM	> 100 µM	> 100 µM	> 100 µM	> 100 µM	> 100 µM
COc1cc(C2=NN(c3ccc(S(N)(=O)=O)cc3)C(c3ccc(Cl)cc3)C2)cc(OC)c1OC (stereo not given)	3.16 µM	9.46 µM	3.94 µM	> 100 µM	3.78 µM	> 100 µM	5.48 µM	> 100 µM	9.78 µM	> 100 µM	3.8 µM	46.4 µM	3.95	> 100 µM	6.43 µM	> 100 µM	4.81 µM	> 100 µM	3.52 µM	12.2 µM
COc1cc2cc(Oc3ccc(NC(=O)Nc4ccc(Cl)c(C(F)(F)F)c4)cc3)c(C)nc2cc1OC	1.37 µM	6.1 µM	1.13 µM	3.12 µM	1.41 µM	5.45 µM	1.41 µM	5.31 µM	1.24 µM	5.11 µM	0.981 µM	4.59 µM	1.07	3.57 µM	1.17 µM	4.96 µM	1.14 µM	5.49 µM	0.66 µM	1.31 µM
C/C1=C\C/C=C(\C)[C@H]2CC(CC/C(C)=C/CC1)[C@](C)(C=O)O2	> 100 µM	> 100 µM	25.6 µM	81.2 µM	> 100 µM	> 100 µM	> 100 µM	> 100 µM	79.8 µM	> 100 µM	20.9 µM	> 100 µM	85.1	> 100 µM	> 100 µM	> 100 µM	21 µM	> 100 µM	> 100 µM	> 100 µM
